The target in the experiment is Transient receptor potential cation channel subfamily V member 1 (Rattus norvegicus, UniProt O35433). Kind of experiment: Agonist activity at rat TRPV1 expressed in CHO cells assessed as maximal calcium uptake.

Each structure is given as a SMILES string.

Chain of Transient receptor potential cation channel subfamily V member 1 (O35433 whole entry): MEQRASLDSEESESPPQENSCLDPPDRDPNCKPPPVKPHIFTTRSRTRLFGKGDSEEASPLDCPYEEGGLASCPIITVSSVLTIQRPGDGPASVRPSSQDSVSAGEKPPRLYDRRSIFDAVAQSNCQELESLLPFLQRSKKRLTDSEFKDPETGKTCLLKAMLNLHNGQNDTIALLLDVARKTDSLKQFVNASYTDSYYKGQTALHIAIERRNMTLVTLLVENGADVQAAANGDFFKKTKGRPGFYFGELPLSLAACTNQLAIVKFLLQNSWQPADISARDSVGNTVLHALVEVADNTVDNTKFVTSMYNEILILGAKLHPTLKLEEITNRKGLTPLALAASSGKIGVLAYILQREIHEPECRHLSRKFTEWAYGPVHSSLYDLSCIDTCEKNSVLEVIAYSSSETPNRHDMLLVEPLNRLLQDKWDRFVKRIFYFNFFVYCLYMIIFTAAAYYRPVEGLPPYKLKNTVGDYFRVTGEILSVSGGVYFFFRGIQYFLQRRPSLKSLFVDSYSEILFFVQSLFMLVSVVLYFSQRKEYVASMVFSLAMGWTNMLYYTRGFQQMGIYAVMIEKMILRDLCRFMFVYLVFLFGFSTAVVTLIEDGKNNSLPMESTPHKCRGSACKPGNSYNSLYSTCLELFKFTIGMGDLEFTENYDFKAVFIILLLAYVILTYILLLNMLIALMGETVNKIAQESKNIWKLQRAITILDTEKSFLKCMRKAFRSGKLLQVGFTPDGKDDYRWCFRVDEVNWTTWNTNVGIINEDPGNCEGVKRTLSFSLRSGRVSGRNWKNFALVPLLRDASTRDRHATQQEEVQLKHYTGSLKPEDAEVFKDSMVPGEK

Usually EC50 stands for the concentration at which the effect is half-maximal. As for `COc1cc(CNC(=S)NC(COC(=O)C(C)(C)C)Cc2ccc(C(C)(C)C)cc2)ccc1O` (stereo unspecified) [2-(3-(4-hydroxy-3-methoxybenzyl)thioureido)-3-(4-tert-butylphenyl)propyl pivalate], the concentration giving a half-maximal response (EC50) stood at 5.7 nM.

Source of the values: BindingDB's records for doi:10.1016/j.bmcl.2006.09.059 (Seoul National University, 2006).
